This note sets out measurements from patent publication US20250213579A1, “COMBINATION THERAPIES” (MIRATI THERAPEUTICS, INC., priority 2018, published 2025).

Like-named read-outs stand apart in the source and are kept apart here.

In this assay the test system is H2122 cells. Conditions: H2122 tumors, nude/nude mice, Compound 478 100 mg/kg and/or Dasatinib 50 mg/kg p.o. daily.

Procedure: Immunocompromised nude/nude mice were inoculated in the right hind flank with cells or patient derived tumor samples harboring a KRas G12C mutation. When tumor volumes reached between 200-400 mm^3 in size, the mice were divided into four groups of 5-12 mice each. The first group was administered vehicle only. […] The fourth group was administered the single agent dose of the KRas G12C inhibitor in combination with the single agent dose of the Src-family kinase inhibitor. […] Tumor volumes were measured using a caliper every two-three days and tumor volumes were calculated by the formula: 0.5×(Length×Width)^2.
Tumor volumes were measured at pre-specified days set forth below.

With `Cc1nc(Nc2ncc(C(=O)Nc3c(C)cccc3Cl)s2)cc(N2CCN(CCO)CC2)n1` [Dasatinib, N-(2-chloro-6-methylphenyl)-2-((6-(4-(2-hydroxyethyl)piperazin-1-yl)-2-methylpyrimidin-4-yl)amino)thiazole-5-carboxamide], the “Average Tumor Volumes” value is given as 324 mm^3 (Day 11 from inoculation (start of dosing)); 492 mm^3 (Day 13 from inoculation); 596 mm^3 (Day 15 from inoculation); 820 mm^3 (Day 18 from inoculation); 938 mm^3 (Day 20 from inoculation); 1086 mm^3 (Day 22 from inoculation). In addition, where the note is “Day 25 from inoculation”, the “Average Tumor Volumes” value was 1216 mm^3. The compound further registered a tumor growth inhibition (Day 20 (Treatment Day 9)) of 23.5%.
